Experimental findings from article PMC4601023, “Novel anticancer agent, SQAP, binds to focal adhesion kinase and modulates its activity” (Scientific Reports, 2015) are described below.

The target in one assay is T1, SCP-2 (400–547) (Homo sapiens, UniProt P22307).
T1 construct: DNA encoding SCP-2 (400–547) was amplified; made in house; host or cells: E. coli Rosetta 2 (DE3) pLysS
Description: SPR analysis, immobilized His-tagged SCP-2 (400-547). The settings on record: Biacore 3000, CM5 chip, 25 °C, read-out: dissociation constant (KD) for SCP-2. It is filed as binding. The text has this:
(§1) SPR was utilized as an independent confirmation of the kinetic parameters between SQAP and the putative binding proteins. […] The recombinant proteins were then expressed in Escherichia coli and purified to homogeneity. In addition, full length, His-tagged ADRM1 and GST-tagged HR23B (GST-HR23B) were also used. The proteins were first immobilized on a CM5 sensor chip of the SPR biosensor (Biacore 3000). For GST-HR23B analysis, a GST protein was additionally immobilized and used as a control in order to eliminate possible nonspecific binding of SQAP. SQAP samples at different concentrations were then injected over the proteins immobilized on the sensor chip. As a negative control we used sulfoquynovosylpropanediol (SQP), which lacks the fatty acid moiety of SQAP (Fig. 1). […]
(§2) The binding kinetics of SCP-2, MFE-2, ADRM1, HR23B and FAK with SQAP and SQP were analyzed on a Biacore 3000 instrument (GE Healthcare, Little Chalfont, UK). […] The buffer of purified peptides was exchanged to HBS-P (150 mM NaCl, 0.005% Surfactant P20, 10 mM HEPES-NaOH pH 7.4) using a PD 10 column (GE Healthcare, Little Chalfont, UK) and the concentrations were quantified using DC protein assay kit (Bio-Rad Laboratories, Hercules, CA, USA). […] Kinetic parameters were determined by analyzing the data using BIAevaluation 4.1 software (GE Healthcare, Little Chalfont, UK).
On the technique in general: SPR reads the build-up and loss of mass on a sensor chip optically.

A further assay concerns the target T2, ADRM1 (Homo sapiens, UniProt Q16186).
T2 construct: ADRM1 and HR23B human full length proteins were purchased; His-tag; purchased ATgen (Gyeonggi-do, Korea)
Description: SPR analysis, immobilized full length His-ADRM1. It is filed as binding. To be noted: Biacore 3000, CM5 chip, 25 °C, read-out: dissociation constant (KD) for ADRM1.
Text: as §1, §2

In a further assay the target is T3, FAK (910–1052) (Homo sapiens, UniProt Q05397).
T3 construct: For FAK (910–1052) DNA was amplified; made in house; host or cells: E. coli BL21 (DE3)
Put plainly: SPR analysis, immobilized His-tagged FAK (910-1052). It is filed as binding. The settings on record: Biacore 3000, CM5 chip, 25 °C, read-out: dissociation constant (KD) for FAK.
Text: as §1, §2

Assay [1] deals with paxillin phosphorylation at Y118 in HUVEC. Put plainly: Paxillin phosphorylation in HUVEC, Western blotting. It is filed as cell-based, human. The settings on record: total paxillin unaltered. The text has this: Furthermore, we looked at FAK signaling pathway to validate our results. Paxillin binds to FAK 919–938 residues which is a sequence contained within the region where SQAP is predicted to bind. Binding between paxillin and FAK results in paxillin phosphorylation at Y118[35][36]. Thus, we examined paxillin phosphorylation. […] Additionally, we studied Akt phosphorylation at S473 on account of FAK is a known factor in control of Akt activity. We observed that Akt phosphorylation was diminished when treated with SQAP or SQMG for 21 h (see Supplementary Fig. S3).
Cells were harvested and solubilized in RIPA buffer (20 mM Tris-HCl, pH 7.5, 1% Sodium deoxycholate, 150 mM NaCl, 5 mM EDTA, 1% Triton X-100, 0.1% SDS, 0.1%, 1 mM PMSF, 1 mM vanadate and 1 μg/mL leupeptin). Protein quantification was determined using the DC protein assay kit (Bio-Rad, Hercules, CA, USA). A total of 15 μg of each protein sample were separated by SDS–PAGE gels and blotted onto polyvinylidene difluoride membranes (Merck, Kenilworth, NJ, US). After blocking for 1 h with Blocking-One (Nacalai Tesque, Kyoto, Japan), proteins were detected by incubating the membranes with the primary antibody at 4 °C overnight (anti-Y397 2:2000, anti-Y925 5:2000 and anti-FAK 0.5:2000) followed by incubation with horseradish peroxidase-conjugated secondary antibodies at room temperature for 1 h (anti-mouse 0.5:2000 and anti-rabbit 0.4:2000).
In general terms: A western blot detects proteins with antibodies after separation by electrophoresis.

For a further assay, the system named is HUVEC cells. Description: Wound healing assay, HUVEC. To be noted: 11 h, 1% FBS and VEGF 50 ng/mL, control 32%. It is filed as cell-based, human. The protocol: Figure 6 SQAP inhibits cell migration in vitro. (A) HUVEC cells were seeded and grown to 100% confluence in 60-mm diameter dishes. After generating a single scratch in the monolayer, the cells were cultured for 11 h in medium containing 1% FBS and VEGF (50 ng/mL) in the presence or absence of SQAP. Photographs were taken immediately after 11 h. (B) The change in wound width was measured as described in the Materials and Methods. (C) A549 cells were seeded and grown to 100% confluence in 60-mm diameter dishes. After generating a single scratch in the monolayer, the cells cultured for the 25 h in media containing 1% FBS and fibronectin (10 μg/ml) treated with SQAP or vehicle. Photographs were collected immediately after wounding and after 25 h. (D) The change in wound width was measured as described in the Materials and Methods. Cell migration was additionally examined in 96 well plates. HUVEC (E) and A549 cells (F) were seeded and grown into confluence overnight. After removing the stoppers, the live cells were stained with CellTracker^TM Green and incubated for the indicated time. The fluorescent emission signal was obtained with a plate reader. […]
Wound healing assay was analyzed by microscope imaging. […] Wound diameters in the images were measured and percentage of wound size was calculated as follows: [wound diameter at 11 or 25 h/wound diameter at 0 h] x 100.

T1 sequence (P22307 400-547): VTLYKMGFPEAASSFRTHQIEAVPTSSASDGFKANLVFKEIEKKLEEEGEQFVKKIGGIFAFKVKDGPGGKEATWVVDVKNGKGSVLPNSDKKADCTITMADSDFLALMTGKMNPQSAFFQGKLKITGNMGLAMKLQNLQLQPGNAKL
T3 sequence (Q05397 910-1052): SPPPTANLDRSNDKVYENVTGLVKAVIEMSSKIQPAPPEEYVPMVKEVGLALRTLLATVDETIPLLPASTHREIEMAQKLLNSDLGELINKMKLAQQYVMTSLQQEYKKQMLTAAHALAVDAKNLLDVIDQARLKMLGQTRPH
T2 sequence (Q16186 whole entry): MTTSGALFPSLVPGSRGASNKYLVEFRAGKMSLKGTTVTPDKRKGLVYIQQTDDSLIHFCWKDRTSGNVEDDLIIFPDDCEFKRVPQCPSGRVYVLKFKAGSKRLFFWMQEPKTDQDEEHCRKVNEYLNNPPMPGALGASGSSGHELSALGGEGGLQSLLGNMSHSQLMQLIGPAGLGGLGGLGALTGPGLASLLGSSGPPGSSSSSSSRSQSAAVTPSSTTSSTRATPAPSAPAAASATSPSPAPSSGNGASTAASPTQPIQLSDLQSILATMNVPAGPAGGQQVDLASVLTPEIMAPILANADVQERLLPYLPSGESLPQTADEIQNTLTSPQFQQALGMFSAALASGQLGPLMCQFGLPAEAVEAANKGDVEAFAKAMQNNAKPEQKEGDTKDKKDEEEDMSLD

Take `CCCCCCCCCCCCCCCCCC(=O)OCCCO[C@H]1O[C@H](CS(=O)(=O)O)[C@@H](O)[C@H](O)[C@H]1O` [SQAP, sulfoquynovosylacylpropanediol]: the Kd (in general, the concentration at which binding is half-saturated) on SCP-2 (400–547) turned out to be 15.6 µM; on ADRM1, 9.65 µM; on FAK (910–1052), 3.24 µM. Besides, the “paxillin phosphorylation at Y118” value in assay [1] is “inhibition of paxillin-phosphorylation”. The molecule also registered a wound size with HUVEC cells of 62%.
